Measured values reported in patent US6214839A, “Substituted 6-alkylphenanthridines” (Byk Gulden Lomberg Chemische Fabrik GmbH, priority 1997, dated 2001).

Test system: PDE 4
Experiment: Inhibition of PDE 4 activity
Assay type: biochemical
Details: inhibitory concentration as -log IC50 (mol/l), method of Bauer and Schwabe adapted to microtiter plates

CCOc1cc2c(cc1OC)C([C@H]1CC[C@H](C(=O)OC)CC1)=N[C@H]1CCCC[C@@H]21 (relative stereo) [Compound 1]
-log IC50: 7.47
